Measurements published in patent US9376425B2, “Heterocyclic compounds as MDM2 inhibitors for the treatment of cancer” (AMGEN INC., priority 2011, dated 2016).

What follows are compounds tested against T1, human MDM2 (GST-hMDM2 1-188), interaction with biotinylated-p53 (1-83) (Homo sapiens, UniProt Q00987) (assay: improved HTRF assay (HTRF2 assay), inhibition of HDM2-p53 interaction). Conditions: 0.2 nM GST-hMDM2, 0.5 nM biotinylated-p53, 100 mM KF.
T1 construct: Amino acid residues 1-188 of human MDM2 were expressed; made in house; host or cells: Escherichia coli
Format: binding
Procedure, shortened: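 Time-resolved fluorescence (HTRF) read after >4 h equilibration with SA-XLent/anti-GST cryptate/KF detection reagents. Reaction: compound plus GST-hMDM2 for 20 min at room temperature, then E. coli-expressed biotinylated p53 residues 1-83 for 60 min, 2% DMSO final. Inhibition expressed versus nutlin-3.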

T1 sequence (Q00987 1-188): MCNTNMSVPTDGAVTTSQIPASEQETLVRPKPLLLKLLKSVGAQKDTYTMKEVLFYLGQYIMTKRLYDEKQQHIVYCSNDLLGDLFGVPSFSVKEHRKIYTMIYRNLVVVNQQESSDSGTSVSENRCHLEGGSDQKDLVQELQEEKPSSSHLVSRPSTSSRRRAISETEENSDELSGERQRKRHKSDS

Structure (SMILES) | IC50
O=C(O)C[C@H]1O[C@H](c2cccc(Cl)c2)[C@@H](c2ccc(Cl)cc2)N([C@H](CN(c2ncccc2F)S(=O)(=O)C2CC2)C2CC2)C1=O (single isomer, unassigned) [Example 189, 2-((2R,5R,6R)-6-(3-chlorophenyl)-5-(4-chlorophenyl)-4-((S)-1-cyclopropyl-2-(N-(3-fluoropyridin-2-yl)cyclopropanesulfonamido)ethyl)-3-oxomorpholin-2-yl)acetic acid or 2-((2S,5R,6R)-6-(3-chlorophenyl)-5-(4-chlorophenyl)-4-((S)-1-cyclopropyl-2-(N-(3-fluoropyridin-2-yl)cyclopropanesulfonamido)ethyl)-3-oxomorpholin-2-yl)acetic acid] | < 1 nM
CC(C)(C)S(=O)(=O)C[C@H](C1CC1)N1C(=O)[C@@H](CC#N)O[C@H](c2cccc(Cl)c2)[C@H]1c1ccc(Cl)cc1 (single isomer, unassigned) [Example 387, 2-((2R,5R,6R)-4-((S)-2-(tert-Butylsulfonyl)-1-cyclopropylethyl)-6-(3-chlorophenyl)-5-(4-chlorophenyl)-3-oxomorpholin-2-yl)acetonitrile or 2-((2S,5R,6R)-4-((S)-2-(tert-butylsulfonyl)-1-cyclopropylethyl)-6-(3-chlorophenyl)-5-(4-chlorophenyl)-3-oxomorpholin-2-yl)acetonitrile] | 62 nM
CC(C)(C)S(=O)(=O)C[C@H](C1CC1)N1C(=O)[C@@H](CC(=O)O)O[C@H](c2cccc(Cl)c2)[C@H]1c1ccc(Cl)c(F)c1 (single isomer, unassigned) [Example 308, 2-((2R,5R,6R)-4-((S)-2-(tert-Butylsulfonyl)-1-cyclopropylethyl)-5-(4-chloro-3-fluorophenyl)-6-(3-chlorophenyl)-3-oxomorpholin-2-yl)acetic acid or 2-((2S,5R,6R)-4-((S)-2-(tert-butylsulfonyl)-1-cyclopropylethyl)-5-(4-chloro-3-fluorophenyl)-6-(3-chlorophenyl)-3-oxomorpholin-2-yl)acetic acid] | < 1 nM
O=C(O)C[C@H]1O[C@H](c2cccc(Cl)c2)[C@@H](c2ccc(Cl)cc2)N([C@H](CN(c2ncccc2F)S(=O)(=O)C2CC2)C2CC2)C1=O (single isomer, unassigned) [Example 188, 2-((2R,5R,6R)-6-(3-chlorophenyl)-5-(4-chlorophenyl)-4-((S)-1-cyclopropyl-2-(N-(3-fluoropyridin-2-yl)cyclopropanesulfonamido)ethyl)-3-oxomorpholin-2-yl)acetic acid or 2-((2S,5R,6R)-6-(3-chlorophenyl)-5-(4-chlorophenyl)-4-((S)-1-cyclopropyl-2-(N-(3-fluoropyridin-2-yl)cyclopropanesulfonamido)ethyl)-3-oxomorpholin-2-yl)acetic acid] | < 1 nM
CC(C)(C)S(=O)(=O)C[C@H](C1CC1)N1C(=O)[C@@H](CC(=O)Nc2ccccn2)O[C@H](c2cccc(Cl)c2)[C@H]1c1ccc(Cl)cc1 (single isomer, unassigned) [Example 354, 2-((2R,5R,6R)-4-((S)-2-(tert-Butylsulfonyl)-1-cyclopropylethyl)-6-(3-chlorophenyl)-5-(4-chlorophenyl)-3-oxomorpholin-2-yl)-N-(pyridin-2-yl)acetamide or 2-((2S,5R,6R)-4-((S)-2-(tert-butylsulfonyl)-1-cyclopropylethyl)-6-(3-chlorophenyl)-5-(4-chlorophenyl)-3-oxomorpholin-2-yl)-N-(pyridin-2-yl)acetamide] | 2 nM
CC[C@@H](CS(=O)(=O)C(C)(C)C)N1C(=O)[C@@H](CC(=O)OC)O[C@H](c2cccc(Cl)c2)[C@H]1c1ccc(Cl)cc1 [Example 149, Methyl 2-((2R,5R,6R)-4-((S)-1-(tert-butylsulfonyl)butan-2-yl)-6-(3-chlorophenyl)-5-(4-chlorophenyl)-3-oxomorpholin-2-yl)acetate] | 30 nM
Cc1ccc([C@H]2O[C@H](CC(=O)O)C(=O)N([C@H](CS(=O)(=O)C(C)(C)C)C3CC3)[C@@H]2c2ccc(Cl)cc2)cc1Cl [Example 327, 2-((2R,5R,6R)-4-((S)-2-(tert-Butylsulfonyl)-1-cyclopropylethyl)-6-(3-chloro-4-methylphenyl)-5-(4-chlorophenyl)-3-oxomorpholin-2-yl)acetic acid] | 51 nM
CC(C)(C)S(=O)(=O)C[C@H](C1CC1)N1C(=O)[C@@H](CC(N)=O)O[C@H](c2cccc(Cl)c2)[C@H]1c1ccc(Cl)cc1 (single isomer, unassigned) [Example 357, 2-((2R,5R,6R)-4-((S)-2-(tert-Butylsulfonyl)-1-cyclopropylethyl)-6-(3-chlorophenyl)-5-(4-chlorophenyl)-3-oxomorpholin-2-yl)acetamide or 2-((2S,5R,6R)-4-((S)-2-(tert-butylsulfonyl)-1-cyclopropylethyl)-6-(3-chlorophenyl)-5-(4-chlorophenyl)-3-oxomorpholin-2-yl)acetamide] | 6 nM
CC(C)(C)S(=O)(=O)C[C@H](C1CC1)N1C(=O)[C@@](C)(CC(=O)O)O[C@H](c2cccc(Cl)c2)[C@H]1c1ccc(Cl)cc1 (single isomer, unassigned) [Example 334, 2-((2R,5R,6R)-4-((S)-2-(tert-Butylsulfonyl)-1-cyclopropylethyl)-6-(3-chlorophenyl)-5-(4-chlorophenyl)-2-methyl-3-oxomorpholin-2-yl)acetic acid or 2-((2S,5R,6R)-4-((S)-2-(tert-butylsulfonyl)-1-cyclopropylethyl)-6-(3-chlorophenyl)-5-(4-chlorophenyl)-2-methyl-3-oxomorpholin-2-yl)acetic acid] | < 1 nM
O=C(O)C[C@H]1O[C@H](c2cccc(Cl)c2)[C@@H](c2ccc(Cl)cc2)N([C@H](CS(=O)(=O)N2CCc3cc(F)ccc32)C2CC2)C1=O (single isomer, unassigned) [Example 298, 2-((2R,5R,6R)-6-(3-Chlorophenyl)-5-(4-chlorophenyl)-4-((S)-1-cyclopropyl-2-((5-fluoroindolin-1-yl)sulfonyl)ethyl)-3-oxomorpholin-2-yl)acetic acid or 2-((2S,5R,6R)-6-(3-chlorophenyl)-5-(4-chlorophenyl)-4-((S)-1-cyclopropyl-2-((5-fluoroindolin-1-yl)sulfonyl)ethyl)-3-oxomorpholin-2-yl)acetic acid] | 26 nM
CC(C)[C@@H](CS(=O)(=O)C(C)(C)C)N1C(=O)[C@@H](CC(=O)O)O[C@H](c2cccc(Cl)c2)[C@H]1c1ccc(Cl)c(F)c1 (single isomer, unassigned) [Example 312] | 279 nM
CC[C@@H](CN(c1ncccc1F)S(=O)(=O)C1CC1)N1C(=O)[C@@H](CC(=O)O)O[C@H](c2cccc(Cl)c2)[C@H]1c1ccc(Cl)cc1 (single isomer, unassigned) [Example 176, 2-((2R,5R,6R)-6-(3-chlorophenyl)-5-(4-chlorophenyl)-4-((S)-1-(N-(3-fluoropyridin-2-yl)cyclopropanesulfonamido)butan-2-yl)-3-oxomorpholin-2-yl)acetic acid or 2-((2S,5R,6R)-6-(3-chlorophenyl)-5-(4-chlorophenyl)-4-((S)-1-(N-(3-fluoropyridin-2-yl)cyclopropanesulfonamido)butan-2-yl)-3-oxomorpholin-2-yl)acetic acid] | < 1 nM
CC[C@@H]([C@H](C)S(=O)(=O)C(C)C)N1C(=O)[C@@H](CC(=O)O)O[C@H](c2cccc(Cl)c2)[C@H]1c1ccc(Cl)cc1 (single isomer, unassigned) [Example 416] | 4 nM
O=C1[C@@H](Cc2ncn[nH]2)O[C@H](c2cccc(Cl)c2)[C@@H](c2ccc(Cl)cc2)N1[C@H](CN(c1ccccc1F)S(=O)(=O)C1CC1)C1CC1 (single isomer, unassigned) [Example 397, N-((S)-2-((2R,5R,6R)-2-((1H-1,2,4-Triazol-5-yl)methyl)-6-(3-chlorophenyl)-5-(4-chlorophenyl)-3-oxomorpholino)-2-cyclopropylethyl)-N-(2-fluorophenyl)cyclopropanesulfonamide or N-((S)-2-((2S,5R,6R)-2-((1H-1,2,4-triazol-5-yl)methyl)-6-(3-chlorophenyl)-5-(4-chlorophenyl)-3-oxomorpholino)-2-cyclopropylethyl)-N-(2-fluorophenyl)cyclopropanesulfonamide] | 1 nM
CC[C@@H](CS(=O)(=O)C(C)(C)C)N1C(=O)[C@@H](CC(=O)O)O[C@H](c2cccc(Cl)c2)[C@H]1c1ccc(Cl)c(F)c1 (single isomer, unassigned) [Example 183, 2-((2R,5R,6R)-4-((S)-1-(tert-butylsulfonyl)butan-2-yl)-5-(4-chloro-3-fluorophenyl)-6-(3-chlorophenyl)-3-oxomorpholin-2-yl)acetic acid or 2-((2S,5R,6R)-4-((S)-1-(tert-butylsulfonyl)butan-2-yl)-5-(4-chloro-3-fluorophenyl)-6-(3-chlorophenyl)-3-oxomorpholin-2-yl)acetic acid] | 178 nM
O=C(O)C[C@H]1O[C@H](c2cccc(Cl)c2)[C@@H](c2ccc(Cl)cc2)N([C@H](CN(c2ccccc2F)S(=O)(=O)C2CC2)C2CC2)C1=O (single isomer, unassigned) [Example 159, 2-((2R,5R,6R)-6-(3-chlorophenyl)-5-(4-chlorophenyl)-4-((S)-1-cyclopropyl-2-(N-(2-fluorophenyl)cyclopropanesulfonamido)ethyl)-3-oxomorpholin-2-yl)acetic acid or 2-((2S,5R,6R)-6-(3-chlorophenyl)-5-(4-chlorophenyl)-4-((S)-1-cyclopropyl-2-(N-(2-fluorophenyl)cyclopropanesulfonamido)ethyl)-3-oxomorpholin-2-yl)acetic acid] | < 1 nM
